Here are results for 32 compounds from patent US9382197B2, “Substituted hydroxamic acids and uses thereof” (Millennium Pharmaceuticals, Inc., priority 2010, dated 2016).

One may read the IC50 as the concentration that gives 50% inhibition. Read a low IC50 as inhibition by little substance.

Bounds are passed on as bounds.

The target of the first assay is T1, purified human HDAC6 (Homo sapiens, UniProt Q9UBN7).
T1 construct: purchased BPS Bioscience 5006
T1 sequence (Q9UBN7 1-1215): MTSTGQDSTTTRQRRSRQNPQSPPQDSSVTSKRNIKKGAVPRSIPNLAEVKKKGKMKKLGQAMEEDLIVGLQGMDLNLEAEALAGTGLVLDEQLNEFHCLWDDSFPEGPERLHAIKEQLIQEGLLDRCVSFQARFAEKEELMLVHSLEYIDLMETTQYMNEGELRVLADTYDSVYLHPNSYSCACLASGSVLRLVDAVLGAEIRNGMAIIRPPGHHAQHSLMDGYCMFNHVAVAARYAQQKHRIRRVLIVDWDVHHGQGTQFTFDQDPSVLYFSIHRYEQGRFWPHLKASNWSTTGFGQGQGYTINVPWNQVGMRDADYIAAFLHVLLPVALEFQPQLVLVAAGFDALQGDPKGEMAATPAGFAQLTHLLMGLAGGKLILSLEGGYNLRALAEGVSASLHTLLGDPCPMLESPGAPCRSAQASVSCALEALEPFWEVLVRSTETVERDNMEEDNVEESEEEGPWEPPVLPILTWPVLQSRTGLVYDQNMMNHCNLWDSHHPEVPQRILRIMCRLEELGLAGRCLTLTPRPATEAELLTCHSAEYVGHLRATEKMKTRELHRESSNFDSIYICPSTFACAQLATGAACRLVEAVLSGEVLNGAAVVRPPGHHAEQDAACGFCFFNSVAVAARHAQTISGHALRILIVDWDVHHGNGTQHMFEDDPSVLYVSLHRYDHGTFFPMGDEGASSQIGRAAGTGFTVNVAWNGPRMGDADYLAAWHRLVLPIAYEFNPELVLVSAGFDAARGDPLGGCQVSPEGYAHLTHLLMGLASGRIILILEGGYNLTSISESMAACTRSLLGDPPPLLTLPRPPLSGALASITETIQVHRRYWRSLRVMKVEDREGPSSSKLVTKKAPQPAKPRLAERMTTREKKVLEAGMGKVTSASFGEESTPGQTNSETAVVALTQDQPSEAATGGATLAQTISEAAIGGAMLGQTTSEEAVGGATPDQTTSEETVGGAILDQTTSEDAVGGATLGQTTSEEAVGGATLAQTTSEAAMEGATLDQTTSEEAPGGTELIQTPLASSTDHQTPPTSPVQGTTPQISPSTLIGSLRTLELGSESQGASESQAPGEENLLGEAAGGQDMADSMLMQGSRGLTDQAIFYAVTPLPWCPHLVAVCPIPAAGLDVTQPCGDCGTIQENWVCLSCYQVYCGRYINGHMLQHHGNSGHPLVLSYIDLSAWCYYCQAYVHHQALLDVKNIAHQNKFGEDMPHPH
As to the kind of experiment: HDAC6 Enzyme Assay. The note with it: bin: greater than 500 nM and less than 1 μM (lower bound in nM, upper bound in μM). The assay is classed as biochemical. A digest of the protocol: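 Deacetylated product quantified after trypsin digestion as released AMC (340/460 nm), following a 1 h, 30 °C reaction of human HDAC6 with Ac-RGK(Ac)-AMC peptide, quenched by trichostatin A. IC50 derived from DMSO-normalized curves.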
The compound `C[C@@H](NC(=O)c1cccn1C)c1cccc(C(=O)NO)c1` [Compound I-271, N-((1R)-1-{3-[(hydroxyamino)carbonyl]phenyl}ethyl)-1-methyl-1H-pyrrole-2-carboxamide] gave an IC50 of 500 to 1000 nM.
On the same count and under the same terms, the same measure for `CC(NS(=O)(=O)c1ccc2nsnc2c1)c1ccc(C(=O)NO)cc1` (centres unmarked) [Compound I-272, 4-{1-[(2,1,3-benzothiadiazol-5-ylsulfonyl)amino]ethyl}-N-hydroxybenzamide]: 500 to 1000 nM; for `C[C@H](NC(=O)C1(C)CCCCC1)c1ccc(C(=O)NO)cc1` [Compound I-273, N-hydroxy-4-((1S)-1-{[(1-methylcyclohexyl)carbonyl]amino}ethyl)benzamide]: 500 to 1000 nM.
Compound `CC(C)(C)C(NC(=O)c1ccc(C(F)(F)F)cc1)c1ccc(C(=O)NO)cc1` (centres unmarked) [Compound I-303, 4-(2,2-dimethyl-1-{[4-(trifluoromethyl)benzoyl]amino}propyl)-N-hydroxybenzamide] displayed an IC50 of 500 to 1000 nM.

The assay is the same for the next values; noted with them: bin: greater than 1 μM.
On to `CC(NC(=O)Cc1ccc2c(c1)OCO2)c1ccc(C(=O)NO)cc1` (centres unmarked) [Compound I-280, 4-{1-[(1,3-benzodioxol-5-ylacetyl)amino]ethyl}-N-hydroxybenzamide], for which the IC50 was > 1000 nM.
For the compound `C[C@@H](NC(=O)C1(C)CCCCC1)c1cccc(C(=O)NO)c1` [Compound I-283, N-hydroxy-3-((1R)-1-{[(1-methylcyclohexyl)carbonyl]amino}ethyl)benzamide], the IC50 is > 1000 nM.
Regarding `CC(C)c1ccc(CC(=O)NC(C)c2ccc(C(=O)NO)cc2)cc1` (centres unmarked) [Compound I-285, N-hydroxy-4-(1-{[(4-isopropylphenyl)acetyl]amino}ethyl)benzamide], the IC50 was > 1000 nM.
On the same count and under the same terms, the same measure for `CC(C)C(NC(=O)C(c1ccccc1)C(C)C)c1ccc(C(=O)NO)cc1` (centres unmarked) [Compound I-289, N-hydroxy-4-{2-methyl-1-[(3-methyl-2-phenylbutanoyl)amino]propyl}benzamide]: > 1000 nM.
For the compound `CC(NC(=O)Cc1ccccc1Cl)c1ccc(C(=O)NO)cc1` (centres unmarked) [Compound I-292, 4-(1-{[(2-chlorophenyl)acetyl]amino}ethyl)-N-hydroxybenzamide], the half-inhibitory concentration (IC50) is > 1000 nM.

Staying with this assay, now noted: purified human HDAC6, substrate Ac-Arg-Gly-Lys(Ac)-AMC, 1 hour at 30° C.; reported as bins.
As for `CC(C)(C)C(NC(=O)c1cc2cc(Cl)ccc2o1)c1ccc(C(=O)NO)cc1` (centres unmarked) [Compound I-270, 5-chloro-N-(1-{4-[(hydroxyamino)carbonyl]phenyl}-2,2-dimethylpropyl)-1-benzofuran-2-carboxamide], the IC50 was 100 to 500 nM.
As to `CCC[C@@H](NC(=O)c1ccc(-c2ccccc2)cc1)c1ccc(C(=O)NO)cc1` [Compound I-274, N-((1R)-1-{4-[(hydroxyamino)carbonyl]phenyl}butyl)biphenyl-4-carboxamide], the IC50 was < 100 nM.
With `CC(NC(=O)Nc1ccc(F)c(F)c1)c1ccc(C(=O)NO)cc1` (centres unmarked) [Compound I-275, 4-[1-({[(3,4-difluorophenyl)amino]carbonyl}amino)ethyl]-N-hydroxybenzamide], the IC50 was < 100 nM.
The compound `Cc1ccc(CNC(=O)NC(C)c2ccc(C(=O)NO)cc2)cc1` (centres unmarked) [Compound I-277, N-hydroxy-4-[1-({[(4-methylbenzyl)amino]carbonyl}amino)ethyl]benzamide] gave an IC50 of 100 to 500 nM.
As for `Cc1nc(C(=O)NC(C)c2ccc(C(=O)NO)cc2)cs1` (centres unmarked) [Compound I-278, N-(1-{4-[(hydroxyamino)carbonyl]phenyl}ethyl)-2-methyl-1,3-thiazole-4-carboxamide], the IC50 is < 100 nM.
The same measure, in the same setting: the same measure for `CC(C)[C@H](NC(=O)c1cc2ccccc2[nH]1)c1ccc(C(=O)NO)cc1` [Compound I-279, N-((1S)-1-{4-[(hydroxyamino)carbonyl]phenyl}-2-methylpropyl)-1H-indole-2-carboxamide]: 100 to 500 nM; for `CCC[C@@H](NC(=O)c1cccn1C)c1ccc(C(=O)NO)cc1` [Compound I-281, N-((1R)-1-{4-[(hydroxyamino)carbonyl]phenyl}butyl)-1-methyl-1H-pyrrole-2-carboxamide]: < 100 nM.
As for `CC(=O)Nc1cc(NC(C)=O)cc(C(=O)NC(c2ccc(C(=O)NO)cc2)C(C)C)c1` (centres unmarked) [Compound I-282, 3,5-bis(acetylamino)-N-(1-{4-[(hydroxyamino)carbonyl]phenyl}-2-methylpropyl)benzamide], the IC50 is < 100 nM.
As for `CC(C)Cc1cc(C(=O)NC(C)c2ccc(C(=O)NO)cc2)no1` (centres unmarked) [Compound I-286, N-(1-{4-[(hydroxyamino)carbonyl]phenyl}ethyl)-5-isobutylisoxazole-3-carboxamide], the IC50 is < 100 nM.
Regarding `CC(C)[C@@H](NC(=O)C(C)(C)C)c1ccc(C(=O)NO)cc1` [Compound I-287, 4-{(1R)-1-[(2,2-dimethylpropanoyl)amino]-2-methylpropyl}-N-hydroxybenzamide], the concentration for half-maximal inhibition (IC50) was < 100 nM.
Regarding `Cc1cc(C(=O)NC(C)c2ccc(C(=O)NO)cc2)n(C)n1` (centres unmarked) [Compound I-288, N-(1-{4-[(hydroxyamino)carbonyl]phenyl}ethyl)-1,3-dimethyl-1H-pyrazole-5-carboxamide], the IC50 is < 100 nM.
For `CC(C)(C)NC(=O)N[C@H](c1ccc(C(=O)NO)cc1)C(F)(F)F` [Compound I-290, 4-((1R)-1-{[(tert-butylamino)carbonyl]amino}-2,2,2-trifluoroethyl)-N-hydroxybenzamide], the IC50 was 100 to 500 nM.
Compound `Cn1nc(C(C)(C)C)cc1C(=O)NC(c1ccc(C(=O)NO)cc1)C(C)(C)C` (centres unmarked) [Compound I-291, 3-tert-butyl-N-(1-{4-[(hydroxyamino)carbonyl]phenyl}-2,2-dimethylpropyl)-1-methyl-1H-pyrazole-5-carboxamide] displayed a half-maximal inhibitory concentration (IC50) of 100 to 500 nM.
Consider `CC(NC(=O)Nc1cccc2nsnc12)c1ccc(C(=O)NO)cc1` (centres unmarked) [Compound I-293, 4-(1-{[(2,1,3-benzothiadiazol-4-ylamino)carbonyl]amino}ethyl)-N-hydroxybenzamide], for which the IC50 was < 100 nM.
`C[C@H](NC(=O)c1cc2ccccc2n1C)c1cccc(C(=O)NO)c1` [Compound I-294, N-((1S)-1-{3-[(hydroxyamino)carbonyl]phenyl}ethyl)-1-methyl-1H-indole-2-carboxamide] yielded an IC50 of 100 to 500 nM.
Still for that read-out and setting: the same measure for `Cc1cccc(C(=O)NC(C)c2ccc(C(=O)NO)cc2)c1` (centres unmarked) [Compound I-295, N-(1-{4-[(hydroxyamino)carbonyl]phenyl}ethyl)-3-methylbenzamide]: < 100 nM; for `O=C(NO)c1ccc([C@H](NC(=O)c2ccc(-c3ccccc3)cc2)C(F)(F)F)cc1` [Compound I-296, N-((1S)-2,2,2-trifluoro-1-{4-[(hydroxyamino)carbonyl]phenyl}ethyl)biphenyl-4-carboxamide]: < 100 nM; for `CC(NC(=O)c1ccc2c(c1)OCO2)c1ccc(C(=O)NO)cc1` (centres unmarked) [Compound I-297, N-(1-{4-[(hydroxyamino)carbonyl]phenyl}ethyl)-1,3-benzodioxole-5-carboxamide]: < 100 nM.
Take `CC(NC(=O)C1(c2ccccc2)CCCC1)c1ccc(C(=O)NO)cc1` (centres unmarked) [Compound I-298, N-hydroxy-4-(1-{[(1-phenylcyclopentyl)carbonyl]amino}ethyl)benzamide]: the IC50 was in the range of 100 to 500 nM.
For `CCC[C@@H](NC(=O)c1cc2ccccc2s1)c1ccc(C(=O)NO)cc1` [Compound I-299, N-((1R)-1-{4-[(hydroxyamino)carbonyl]phenyl}butyl)-1-benzothiophene-2-carboxamide], the IC50 was < 100 nM.
With `CC(C)C(NC(=O)C1(c2ccc(Cl)cc2)CC1)c1ccc(C(=O)NO)cc1` (centres unmarked) [Compound I-300, 4-[1-({[1-(4-chlorophenyl)cyclopropyl]carbonyl}amino)-2-methylpropyl]-N-hydroxybenzamide], the IC50 lay in the range of 100 to 500 nM.
Compound `C[C@@H](NC(=O)c1cc(Cl)c(Cl)n1C)c1cccc(C(=O)NO)c1` [Compound I-301, 4,5-dichloro-N-((1R)-1-{3-[(hydroxyamino)carbonyl]phenyl}ethyl)-1-methyl-1H-pyrrole-2-carboxamide] yielded an IC50 of 100 to 500 nM.
With `CC(NS(=O)(=O)c1ccc(Cl)cc1)c1ccc(C(=O)NO)cc1` (centres unmarked) [Compound I-302, 4-(1-{[(4-chlorophenyl)sulfonyl]amino}ethyl)-N-hydroxybenzamide], the concentration for half-maximal inhibition (IC50) lay within 100 to 500 nM.
